Data published in PubChem BioAssay (NCI).
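Protocol summary: plate cells (96-well), add compound at 5 concentrations, incubate 48 h, interpolate endpoints linearly. TGI: concentration producing complete growth inhibition.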

What was measured:
Assay in all cases: NCI anticancer screen, dose series, 48 h
[1] = system: SK-MEL-2 melanoma
[2] = system: SR leukemia
[3] = system: IGROV1 ovarian
[4] = system: U251 CNS
[5] = system: A549 NSCLC
[6] = system: HOP-62 NSCLC
[7] = system: A498 renal
[8] = system: PC-3 prostate
[9] = system: MCF7 breast
[10] = system: UACC-257 melanoma
[11] = system: SN12C renal
[12] = system: SNB-75 CNS
[13] = system: NCI-H226 lung
[14] = system: KM12 colon
[15] = system: M14 melanoma
[16] = system: DU-145 prostate
[17] = system: 786-0 renal
[18] = system: NCI/ADR-RES ovarian
[19] = system: K-562 leukemia
[20] = system: SK-MEL-28 melanoma
[21] = system: SNB-19 CNS
[22] = system: MOLT-4 leukemia
[23] = system: HOP-92 NSCLC
[24] = system: BT-549 breast
[25] = system: T-47D breast
[26] = system: MDA-MB-435
[27] = system: HCT-116 colon
[28] = system: OVCAR-3 ovarian
[29] = system: HCT-15 colon
[30] = system: SF-539 CNS
[31] = system: RPMI-8226 leukemia
[32] = system: UO-31 renal
[33] = system: SK-OV-3 ovarian
[34] = system: UACC-62 melanoma
[35] = system: EKVX NSCLC
[36] = system: OVCAR-8 ovarian
[37] = system: CAKI-1 renal
[38] = system: NCI-H460 lung
[39] = system: TK-10 renal
[40] = system: SK-MEL-5 melanoma
[41] = system: CCRF-CEM leukemia
[42] = system: LOX IMVI melanoma
[43] = system: COLO 205 colon
[44] = system: SW-620 colon
[45] = system: RXF 393 renal
[46] = system: OVCAR-4 ovarian
[47] = system: MDA-MB-231 breast
[48] = system: NCI-H23 lung
[49] = system: OVCAR-5 ovarian
[50] = system: HL-60(TB) leukemia
[51] = system: SF-295 CNS
[52] = system: MDA-N
[53] = system: HT29 colon
[54] = system: ACHN renal
[55] = system: SF-268 CNS
[56] = system: NCI-H522 lung
[57] = system: HCC-2998 colon
[58] = system: MALME-3M melanoma

O=C(O)C(CCc1ccccc1)N1C(=O)c2ccccc2C1=O (centres undefined)
TGI [1]: > 100 µM
TGI [2]: > 100 µM
TGI [3]: > 100 µM
TGI [4]: > 100 µM
TGI [5]: > 100 µM
TGI [6]: > 100 µM
TGI [7]: > 100 µM
TGI [8]: > 100 µM
TGI [9]: > 100 µM
TGI [10]: > 100 µM
TGI [11]: > 100 µM
TGI [12]: > 100 µM
TGI [13]: > 100 µM
TGI [14]: > 100 µM
TGI [15]: > 100 µM
TGI [16]: > 100 µM
TGI [17]: > 100 µM
TGI [18]: > 100 µM
TGI [19]: > 100 µM
TGI [20]: > 100 µM
TGI [21]: > 100 µM
TGI [22]: > 100 µM
TGI [23]: > 100 µM
TGI [24]: > 100 µM
TGI [25]: > 100 µM
TGI [26]: > 100 µM
TGI [27]: > 100 µM
TGI [28]: > 100 µM
TGI [29]: > 100 µM
TGI [30]: > 100 µM
TGI [31]: > 100 µM
TGI [32]: > 100 µM
TGI [33]: > 100 µM
TGI [34]: > 100 µM
TGI [35]: > 100 µM
TGI [36]: > 100 µM
TGI [37]: > 100 µM
TGI [38]: > 100 µM
TGI [39]: > 100 µM
TGI [40]: > 100 µM
TGI [41]: > 100 µM
TGI [42]: > 100 µM
TGI [43]: > 100 µM
TGI [44]: > 100 µM
TGI [45]: > 100 µM
TGI [46]: > 100 µM
TGI [47]: > 100 µM
TGI [48]: > 100 µM
TGI [49]: > 100 µM
TGI [50]: > 100 µM
TGI [51]: > 100 µM
TGI [52]: > 100 µM
TGI [53]: > 100 µM
TGI [54]: > 100 µM

CO/C(=N\N=C\c1ccccc1F)c1ccncc1
TGI [1]: > 10 µM
TGI [2]: > 10 µM
TGI [4]: > 10 µM
TGI [55]: > 10 µM
TGI [5]: > 10 µM
TGI [6]: > 10 µM
TGI [8]: > 10 µM
TGI [9]: > 10 µM
TGI [10]: > 10 µM
TGI [11]: > 10 µM
TGI [13]: > 10 µM
TGI [14]: > 10 µM
TGI [15]: > 10 µM
TGI [16]: > 10 µM
TGI [17]: > 10 µM
TGI [56]: > 10 µM
TGI [18]: > 10 µM
TGI [19]: > 10 µM
TGI [21]: > 10 µM
TGI [22]: > 10 µM
TGI [23]: > 10 µM
TGI [24]: > 10 µM
TGI [25]: > 10 µM
TGI [26]: > 10 µM
TGI [27]: > 10 µM
TGI [28]: > 10 µM
TGI [29]: > 10 µM
TGI [31]: > 10 µM
TGI [32]: > 10 µM
TGI [35]: > 10 µM
TGI [36]: > 10 µM
TGI [57]: > 10 µM
TGI [37]: > 10 µM
TGI [38]: > 10 µM
TGI [39]: > 10 µM
TGI [58]: > 10 µM
TGI [41]: > 10 µM
TGI [42]: > 10 µM
TGI [43]: > 10 µM
TGI [44]: > 10 µM
TGI [45]: > 10 µM
TGI [46]: > 10 µM
TGI [47]: > 10 µM
TGI [48]: > 10 µM
TGI [49]: > 10 µM
TGI [50]: > 10 µM
TGI [51]: > 10 µM
TGI [52]: > 10 µM
TGI [53]: > 10 µM
TGI [54]: > 10 µM
